Data taken from PMC11868595, “Safety, pharmacokinetics and efficacy of HA121-28 in patients with advanced solid tumors and RET fusion-positive non-small-cell lung cancer: a multicenter, open-label, single-arm phase 1/2 trial” (Signal Transduction and Targeted Therapy, 2025).
Where two headings read alike, the source gives them in different places.

Experiments:
RET = RET (Homo sapiens, UniProt P07949); assay: Tyrosine kinase inhibition; type: biochemical
KDR = KDR (Homo sapiens, UniProt P35968); assay: Tyrosine kinase inhibition; type: biochemical
Chain of KDR (P35968 20-1356): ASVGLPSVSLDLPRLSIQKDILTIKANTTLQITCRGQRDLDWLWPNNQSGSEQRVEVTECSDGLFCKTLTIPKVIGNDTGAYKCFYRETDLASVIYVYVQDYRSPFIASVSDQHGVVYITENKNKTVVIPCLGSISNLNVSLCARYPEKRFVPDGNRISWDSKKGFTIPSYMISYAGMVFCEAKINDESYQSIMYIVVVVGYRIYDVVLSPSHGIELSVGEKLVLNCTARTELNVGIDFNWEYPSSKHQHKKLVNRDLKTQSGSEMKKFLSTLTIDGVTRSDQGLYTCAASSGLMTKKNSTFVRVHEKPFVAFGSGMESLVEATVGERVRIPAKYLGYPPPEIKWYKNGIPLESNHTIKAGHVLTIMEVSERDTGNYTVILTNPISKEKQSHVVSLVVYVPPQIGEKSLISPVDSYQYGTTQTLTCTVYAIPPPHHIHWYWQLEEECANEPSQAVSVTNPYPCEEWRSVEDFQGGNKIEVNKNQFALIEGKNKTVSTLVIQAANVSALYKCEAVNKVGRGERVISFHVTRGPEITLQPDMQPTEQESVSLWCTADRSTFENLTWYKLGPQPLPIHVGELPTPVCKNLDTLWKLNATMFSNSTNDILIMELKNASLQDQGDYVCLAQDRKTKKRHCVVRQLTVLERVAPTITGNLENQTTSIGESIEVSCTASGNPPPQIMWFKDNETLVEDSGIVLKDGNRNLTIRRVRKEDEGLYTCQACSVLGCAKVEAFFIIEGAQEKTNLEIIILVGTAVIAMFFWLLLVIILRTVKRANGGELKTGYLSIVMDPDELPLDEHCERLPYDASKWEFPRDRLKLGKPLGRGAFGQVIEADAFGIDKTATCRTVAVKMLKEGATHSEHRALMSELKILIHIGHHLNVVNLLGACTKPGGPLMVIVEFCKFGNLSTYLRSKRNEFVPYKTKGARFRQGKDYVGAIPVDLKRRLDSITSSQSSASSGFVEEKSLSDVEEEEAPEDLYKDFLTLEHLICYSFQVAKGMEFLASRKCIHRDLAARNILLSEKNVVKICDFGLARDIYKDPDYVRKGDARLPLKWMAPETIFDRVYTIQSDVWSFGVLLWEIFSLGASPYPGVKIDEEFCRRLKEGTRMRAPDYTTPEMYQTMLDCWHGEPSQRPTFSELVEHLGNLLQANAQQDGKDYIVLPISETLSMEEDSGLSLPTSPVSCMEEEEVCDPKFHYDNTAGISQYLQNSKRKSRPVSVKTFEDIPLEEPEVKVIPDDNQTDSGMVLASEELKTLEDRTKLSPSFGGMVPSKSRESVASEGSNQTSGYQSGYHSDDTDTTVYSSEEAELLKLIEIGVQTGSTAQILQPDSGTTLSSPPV

EphA1 = EphA1 (Homo sapiens, UniProt P21709); assay: Tyrosine kinase inhibition; type: biochemical
Chain of EphA1 (P21709 26-976): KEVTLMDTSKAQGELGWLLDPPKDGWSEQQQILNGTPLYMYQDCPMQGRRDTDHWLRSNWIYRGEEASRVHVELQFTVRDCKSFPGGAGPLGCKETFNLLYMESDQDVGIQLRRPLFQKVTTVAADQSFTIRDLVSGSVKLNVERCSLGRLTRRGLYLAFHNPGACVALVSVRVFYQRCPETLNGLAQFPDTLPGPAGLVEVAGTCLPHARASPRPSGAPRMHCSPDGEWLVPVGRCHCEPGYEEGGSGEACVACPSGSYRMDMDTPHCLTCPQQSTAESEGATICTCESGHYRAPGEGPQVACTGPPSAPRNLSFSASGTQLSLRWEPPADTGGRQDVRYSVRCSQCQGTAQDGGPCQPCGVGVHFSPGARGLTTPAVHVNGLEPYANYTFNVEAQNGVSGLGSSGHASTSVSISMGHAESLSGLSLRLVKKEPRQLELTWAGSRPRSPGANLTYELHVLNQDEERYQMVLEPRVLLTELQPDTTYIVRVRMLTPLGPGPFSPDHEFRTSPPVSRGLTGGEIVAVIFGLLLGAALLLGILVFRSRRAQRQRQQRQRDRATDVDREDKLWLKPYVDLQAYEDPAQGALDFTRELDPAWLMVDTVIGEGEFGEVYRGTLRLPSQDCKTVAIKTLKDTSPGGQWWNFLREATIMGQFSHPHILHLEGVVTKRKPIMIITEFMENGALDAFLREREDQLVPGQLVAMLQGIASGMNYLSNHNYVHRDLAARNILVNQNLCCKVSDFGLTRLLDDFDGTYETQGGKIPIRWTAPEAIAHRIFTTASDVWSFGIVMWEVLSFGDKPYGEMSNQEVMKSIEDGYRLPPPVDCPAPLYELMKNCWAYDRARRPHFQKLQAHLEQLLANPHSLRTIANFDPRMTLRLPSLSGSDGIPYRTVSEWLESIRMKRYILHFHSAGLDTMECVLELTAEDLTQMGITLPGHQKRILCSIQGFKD

ECA-109 cells = assay: Tumor cell proliferation in vitro; type: cell-based, human
TT cells = assay: Tumor cell proliferation in vitro; type: cell-based, human
BEL-7402 cells = assay: Tumor cell proliferation in vitro; type: cell-based; details: BEL-7402
MDA-MB-231 cells = assay: Tumor cell proliferation in vitro; type: cell-based
EGFR and ERK activation = assay: EGF-stimulated activation of EGFR and ERK in A431 cells; type: cell-based, human; details: 10 ng/mL EGF, concentration-dependent
VEGFR and ERK activation = assay: VEGF165-stimulated activation of VEGFR and ERK in HUVEC cells; type: cell-based, human; details: 50 ng/mL VEGF165, concentration-dependent
Rat plasma kinetics = type: in vivo
Plasma protein binding = type: in vitro ADME; details: monkeys
[1] = Tissue distribution in rats; type: in vivo; details: for time of distribution peak: intragastric
Single-dose toxicity = type: in vivo, SD rats; details: single oral gavage
Description: mg/kg. The maximum tolerated dose (MTD) was 500 mg/kg. Gastrointestinal, hepatic, and immune system toxicity may have contributed to the rat deaths.
2.2. Dose expansion phase
[…] To investigate the efficacy of HA121- 28 tablets in patients with advanced solid tumors.
This study is a single- arm, open- label, dose-escalation, and dose-expansion phase 1 clinical studywith single and multiple dosing.

Mouse micronucleus test = details: in vivo mouse micronucleus test
FGFR4 = FGFR4 (Homo sapiens, UniProt P22455); assay: Tyrosine kinase inhibition; type: biochemical
BLK = BLK (Homo sapiens, UniProt P51451); assay: Tyrosine kinase inhibition; type: biochemical
BTK = BTK (Homo sapiens, UniProt Q06187); assay: Tyrosine kinase inhibition; type: biochemical
Chain of BTK (Q06187 whole entry): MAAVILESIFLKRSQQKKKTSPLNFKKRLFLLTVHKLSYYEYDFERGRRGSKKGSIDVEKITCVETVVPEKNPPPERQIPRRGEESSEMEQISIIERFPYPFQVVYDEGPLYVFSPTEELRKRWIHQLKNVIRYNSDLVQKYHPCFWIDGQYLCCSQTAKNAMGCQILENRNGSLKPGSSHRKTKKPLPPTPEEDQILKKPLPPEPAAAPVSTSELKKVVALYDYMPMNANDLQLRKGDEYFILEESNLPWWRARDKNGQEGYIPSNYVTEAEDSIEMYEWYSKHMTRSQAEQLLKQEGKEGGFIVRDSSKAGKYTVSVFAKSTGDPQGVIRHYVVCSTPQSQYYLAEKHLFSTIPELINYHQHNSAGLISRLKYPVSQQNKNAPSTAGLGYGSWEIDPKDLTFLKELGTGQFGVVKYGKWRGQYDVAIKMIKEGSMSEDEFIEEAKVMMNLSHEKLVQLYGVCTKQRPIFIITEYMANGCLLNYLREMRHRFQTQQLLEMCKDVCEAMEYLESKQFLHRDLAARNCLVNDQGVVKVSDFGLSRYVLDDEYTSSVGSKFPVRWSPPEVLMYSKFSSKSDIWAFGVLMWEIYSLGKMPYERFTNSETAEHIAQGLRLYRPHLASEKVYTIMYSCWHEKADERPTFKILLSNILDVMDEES

TrkA = TrkA (Homo sapiens, UniProt P04629); assay: Tyrosine kinase inhibition; type: biochemical
Chain of TrkA (P04629 33-796): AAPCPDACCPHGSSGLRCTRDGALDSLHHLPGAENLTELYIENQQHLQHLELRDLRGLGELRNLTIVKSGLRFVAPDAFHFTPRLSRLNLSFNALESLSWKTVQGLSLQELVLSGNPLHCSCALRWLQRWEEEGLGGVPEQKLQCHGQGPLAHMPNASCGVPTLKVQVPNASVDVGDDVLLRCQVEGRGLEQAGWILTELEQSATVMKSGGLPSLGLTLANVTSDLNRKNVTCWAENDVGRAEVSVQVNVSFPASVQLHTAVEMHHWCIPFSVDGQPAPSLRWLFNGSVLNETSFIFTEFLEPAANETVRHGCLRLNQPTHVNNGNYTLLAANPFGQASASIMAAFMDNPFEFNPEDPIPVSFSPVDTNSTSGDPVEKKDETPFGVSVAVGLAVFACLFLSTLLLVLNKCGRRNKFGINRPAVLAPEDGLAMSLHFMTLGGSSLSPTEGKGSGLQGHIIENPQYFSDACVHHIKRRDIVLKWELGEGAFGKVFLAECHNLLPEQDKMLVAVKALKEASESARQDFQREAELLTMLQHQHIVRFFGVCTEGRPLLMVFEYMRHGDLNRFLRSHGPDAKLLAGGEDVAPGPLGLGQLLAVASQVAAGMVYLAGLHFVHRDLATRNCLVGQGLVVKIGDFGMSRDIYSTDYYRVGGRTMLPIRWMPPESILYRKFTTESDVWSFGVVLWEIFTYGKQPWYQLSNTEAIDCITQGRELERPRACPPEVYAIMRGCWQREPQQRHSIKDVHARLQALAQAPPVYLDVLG

HUVEC cells = details: 50 ng/mL VEGF165

Chain of RET (P07949 29-1114): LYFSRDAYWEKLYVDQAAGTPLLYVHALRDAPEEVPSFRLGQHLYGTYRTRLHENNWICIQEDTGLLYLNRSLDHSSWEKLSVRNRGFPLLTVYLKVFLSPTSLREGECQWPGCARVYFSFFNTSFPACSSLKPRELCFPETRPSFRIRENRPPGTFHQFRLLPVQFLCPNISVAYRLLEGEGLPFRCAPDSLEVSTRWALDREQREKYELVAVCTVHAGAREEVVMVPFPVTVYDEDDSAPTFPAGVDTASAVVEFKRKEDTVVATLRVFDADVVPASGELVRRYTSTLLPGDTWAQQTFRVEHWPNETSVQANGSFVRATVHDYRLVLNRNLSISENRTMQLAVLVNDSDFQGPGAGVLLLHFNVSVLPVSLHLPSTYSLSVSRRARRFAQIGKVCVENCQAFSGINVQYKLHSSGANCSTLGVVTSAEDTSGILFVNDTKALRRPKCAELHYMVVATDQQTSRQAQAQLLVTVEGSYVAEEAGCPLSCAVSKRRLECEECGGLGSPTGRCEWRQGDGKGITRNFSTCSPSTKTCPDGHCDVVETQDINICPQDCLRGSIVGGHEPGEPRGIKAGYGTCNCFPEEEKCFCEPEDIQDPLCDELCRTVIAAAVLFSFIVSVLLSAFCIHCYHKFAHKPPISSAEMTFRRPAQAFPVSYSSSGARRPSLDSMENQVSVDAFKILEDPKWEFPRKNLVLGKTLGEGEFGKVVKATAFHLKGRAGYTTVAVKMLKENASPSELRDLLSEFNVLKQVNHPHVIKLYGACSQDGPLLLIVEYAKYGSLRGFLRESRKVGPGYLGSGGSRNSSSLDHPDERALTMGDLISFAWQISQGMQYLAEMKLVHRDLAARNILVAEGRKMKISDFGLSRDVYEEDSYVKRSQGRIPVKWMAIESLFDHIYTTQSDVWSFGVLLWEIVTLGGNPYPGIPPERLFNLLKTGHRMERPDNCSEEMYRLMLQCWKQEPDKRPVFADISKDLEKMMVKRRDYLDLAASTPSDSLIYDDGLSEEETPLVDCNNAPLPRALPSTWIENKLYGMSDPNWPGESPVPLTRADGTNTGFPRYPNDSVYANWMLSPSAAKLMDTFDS

COc1cc2c(Nc3ccc(Br)cc3F)ncnc2cc1OCCCCN(C)C.Cl.Cl [HA121-28, N-(4-bromo-2-fluorophenyl)-7-(4-(dimethylamino)butoxy)-6-methoxy quinazolin-4-amine dihydrochloride]
IC50 (RET): 8.72 nM
IC50 (KDR): 35.7 nM
IC50 (EphA1): 86.9 nM
IC50 (ECA-109 cells): 6663 ± 54.5 nM
IC50 (TT cells): 3830 ± 91.5 nM
IC50 (BEL-7402 cells; read-out: IC50): 10000 to 100000 nM
IC50 (BEL-7402 cells; read-out: IC50, proliferation): 9910 ± 202 nM
IC50 (MDA-MB-231 cells; read-out: IC50): 10000 to 100000 nM
IC50 (MDA-MB-231 cells; read-out: IC50, proliferation): 10300 ± 2010 nM
activation of EGFR and downstream ERK (EGFR and ERK activation): significantly inhibited
activation of VEGFR and downstream ERK (VEGFR and ERK activation): significantly inhibited
AUC0-96h (Rat plasma kinetics; 7 consecutive days (10 mg/kg)): 8420 ± 1720 ng·h/mL
AUC0-∞ (Rat plasma kinetics; 7 consecutive days (10 mg/kg)): 9690 ± 2310 ng·h/mL
CL (Rat plasma kinetics; 7 consecutive days (10 mg/kg)): 39.3 ± 6.53 mL/min/kg
Cmax (Rat plasma kinetics; 7 consecutive days (10 mg/kg)): 284 ± 56.8 ng/mL
MRT0-∞ (Rat plasma kinetics; 7 consecutive days (10 mg/kg)): 40.0 ± 7.30 h
Tmax (Rat plasma kinetics; 7 consecutive days (10 mg/kg)): 6.00 ± 0.00 h
Vd (Rat plasma kinetics; 7 consecutive days (10 mg/kg)): 110 ± 24.9 L/kg
t1/2 (Rat plasma kinetics; 7 consecutive days (10 mg/kg)): 32.9 ± 7.77 h
AUC0-96h (Rat plasma kinetics; high dose (20 mg/kg)): 6460 ± 849 ng·h/mL
AUC0-∞ (Rat plasma kinetics; high dose (20 mg/kg)): 6760 ± 1040 ng·h/mL
CL (Rat plasma kinetics; high dose (20 mg/kg)): 50.3 ± 8.05 mL/min/kg
Cmax (Rat plasma kinetics; high dose (20 mg/kg)): 288 ± 38.5 ng/mL
MRT0-96h (Rat plasma kinetics; high dose (20 mg/kg)): 22.8 ± 2.85 h
MRT0-∞ (Rat plasma kinetics; high dose (20 mg/kg)): 27.3 ± 5.24 h
Tmax (Rat plasma kinetics; high dose (20 mg/kg)): 5.00 ± 1.55 h
Vd (Rat plasma kinetics; high dose (20 mg/kg)): 96.8 ± 8.19 L/kg
t1/2 (Rat plasma kinetics; high dose (20 mg/kg)): 22.8 ± 5.00 h
AUC0-96h (Rat plasma kinetics; intravenous (5 mg/kg)): 1440 ± 214 ng·h/mL
AUC0-∞ (Rat plasma kinetics; intravenous (5 mg/kg)): 1470 ± 232 ng·h/mL
C5min (Rat plasma kinetics; intravenous (5 mg/kg)): 246 ± 43.1 ng/mL
CL (Rat plasma kinetics; intravenous (5 mg/kg)): 57.8 ± 8.8 mL/min/kg
MRT0-96h (Rat plasma kinetics; intravenous (5 mg/kg)): 17.2 ± 1.68 h
MRT0-∞ (Rat plasma kinetics; intravenous (5 mg/kg)): 19.0 ± 2.82 h
Vd (Rat plasma kinetics; intravenous (5 mg/kg)): 90.9 ± 12.3 L/kg
t1/2 (Rat plasma kinetics; intravenous (5 mg/kg)): 18.5 ± 3.86 h
AUC0-96h (Rat plasma kinetics; low dose (5 mg/kg)): 1350 ± 419 ng·h/mL
AUC0-∞ (Rat plasma kinetics; low dose (5 mg/kg)): 1390 ± 438 ng·h/mL
CL (Rat plasma kinetics; low dose (5 mg/kg)): 65.2 ± 19.8 mL/min/kg
Cmax (Rat plasma kinetics; low dose (5 mg/kg)): 58.7 ± 12.7 ng/mL
MRT0-96h (Rat plasma kinetics; low dose (5 mg/kg)): 19.2 ± 2.41 h
MRT0-∞ (Rat plasma kinetics; low dose (5 mg/kg)): 21.5 ± 3.23 h
Tmax (Rat plasma kinetics; low dose (5 mg/kg)): 5.00 ± 1.10 h
Vd (Rat plasma kinetics; low dose (5 mg/kg)): 93.5 ± 15.9 L/kg
t1/2 (Rat plasma kinetics; low dose (5 mg/kg)): 17.4 ± 3.52 h
AUC0-96h (Rat plasma kinetics; medium dose (10 mg/kg)): 3200 ± 629 ng·h/mL
AUC0-∞ (Rat plasma kinetics; medium dose (10 mg/kg)): 3300 ± 696 ng·h/mL
CL (Rat plasma kinetics; medium dose (10 mg/kg)): 52.5 ± 11.6 mL/min/kg
Cmax (Rat plasma kinetics; medium dose (10 mg/kg)): 147 ± 26.6 ng/mL
MRT0-96h (Rat plasma kinetics; medium dose (10 mg/kg)): 21.8 ± 2.80 h
MRT0-∞ (Rat plasma kinetics; medium dose (10 mg/kg)): 24.7 ± 4.71 h
Tmax (Rat plasma kinetics; medium dose (10 mg/kg)): 4.50 ± 1.22 h
Vd (Rat plasma kinetics; medium dose (10 mg/kg)): 82.8 ± 9.31 L/kg
t1/2 (Rat plasma kinetics; medium dose (10 mg/kg)): 18.8 ± 3.60 h
F (oral bioavailability) (Rat plasma kinetics; rat): 93.8%
plasma protein binding rate (Plasma protein binding): 92.5±0.331%
content at 72 h post-dose as fraction of distribution peak ([1]; adrenal glands): 1/8
tissue AUC0-72h exposure relative to plasma ([1]; bone marrow): ≈ 1.3 times plasma
tissue AUC0-72h exposure relative to plasma ([1]; brain, adipose tissue, muscles): 3~9 times plasma
tissue AUC0-72h exposure relative to plasma ([1]; liver, kidneys, ovaries): ≈ 100 times plasma
time of distribution peak ([1]; liver, stomach, intestines): 0.5 h
time of distribution peak ([1]; most tissues): 4 h
tissue AUC0-72h exposure relative to plasma ([1]; spleen, lungs, adrenal glands): ≈ 200 times plasma
time of distribution peak ([1]; testes): 24 h
content at 72 h post-dose as fraction of distribution peak ([1]; uterus): 1/5
tissue AUC0-72h exposure relative to plasma ([1]; uterus, testes, thymus, intestines, thyroid, heart, stomach): 20~60 times plasma
maximum tolerated dose (MTD) (Single-dose toxicity): 500 mg/kg
genetic toxicity (Mouse micronucleus test): negative
IC50 (FGFR4): 953 nM
IC50 (BLK): 201 nM
IC50 (BTK): 446 nM
IC50 (TrkA): 1360 nM
IC50 (HUVEC cells): 65.4 nM
